Data as given in patent US20260174757A1, “COMPOSITIONS AND METHODS FOR TREATING PULMONARY ARTERIAL HYPERTENSION” (Inhibikase Therapeutics, Inc., priority 2024, published 2026).
Counter-ions that a name gives are not always drawn. Like-named read-outs stand apart in the source and are kept apart here.

Assays:
[1] = Comparative toxicology in non-human primate (NOAEL); conditions: cynomolgus macaque, in vivo; 28-day GLP toxicology study in cynomolgus macaques; read-out: No Adverse Effect Level (NOAEL)
Description: The compound of formula (I) was originally developed to address on-dosing side effects of imatinib therapy. In particular, up to 50% of imatinib patients experience persistent Grade 2 or less gastrointestinal (GI) adverse events during treatment for blood or stomach cancers, and during the previous imatinib trials, up to ⅓ of participants experienced these GI events including 3% of participants experiencing SAEs due to GI disturbance. The compound of formula (I) was developed specifically to reduce these events with the expectations that improvement in other off-target or unintended side effects of this therapy could follow. To illustrate the potential of the compound of formula (I) to minimize GI disturbance, the compound was evaluated in comparative toxicology experiments in non-human primate (NHP).

[2] = human, in vivo
Description: Additionally, the clinical pharmacokinetics for each cohort of healthy subjects studied for the compound of formula (I) using the designs were summarized.

[3] = imatinib mesylate in NHP, Q.D.; from NDA 21-335; cited from earlier work
[4] = steady state, Day 91, NOAEL 15 mg/kg, from NDA 21-335, cited from earlier work

SMILES: CCC(C)OC(=O)OC[N+]1(C)CCN(Cc2ccc(C(=O)Nc3ccc(C)c(Nc4nccc(-c5cccnc5)n4)c3)cc2)CC1 (stereo not shown) [IkT-001Pro]
- NOAEL at 28 day [1]: 75 mg/kg
- dose dependence of single dose Cmax and AUC0-inf [2]: increased linearly with dose
- AUC0-last ([2]; 300 mg): 17820 ng·h/mL
- CL/F ([2]; 300 mg): 14.03 L/h
- Cmax ([2]; 300 mg): 926.1 ng/mL
- Tmax ([2]; 300 mg): 5.33 h
- Vz/F ([2]; 300 mg): 331.4 L
- AUC0-last ([2]; 400 mg): 30100 ng·h/mL
- CL/F ([2]; 400 mg): 10.82 L/h
- Cmax ([2]; 400 mg): 1563 ng/mL
- Tmax ([2]; 400 mg): 5.75 h
- Vz/F ([2]; 400 mg): 247.5 L
- AUC0-last ([2]; 500 mg): 38440 ng·h/mL
- CL/F ([2]; 500 mg): 11.29 L/h
- Cmax ([2]; 500 mg): 1836 ng/mL
- Tmax ([2]; 500 mg): 5.75 h
- Vz/F ([2]; 500 mg): 303.8 L
- AUC0-inf LSM (plasma imatinib) ([2]; 600 mg): 41202.597
- AUC0-last LSM (plasma imatinib) ([2]; 600 mg): 40456.384
- Cmax LSM (plasma imatinib) ([2]; 600 mg): 1939.51
- AUC0-inf LSM ([2]; 800 mg): 50840.298
- AUC0-last ([2]; 800 mg): 51430 ng·h/mL
- AUC0-last LSM ([2]; 800 mg): 50220.802
- CL/F ([2]; 800 mg): 12.8 L/h
- Cmax ([2]; 800 mg): 2467 ng/mL
- Cmax LSM ([2]; 800 mg): 2409.131
- Tmax ([2]; 800 mg): 5.5 h
- Vz/F ([2]; 800 mg): 272 L

SMILES: Cc1ccc(NC(=O)c2ccc(CN3CCN(C)CC3)cc2)cc1Nc1nccc(-c2cccnc2)n1 [Imatinib mesylate, imatinib mesylate]
- No Adverse Effect Level (NOAEL) [3]: 15 mg/kg
- AUC0-last (mean) ([4]; female): 1960 ng·h/mL
- AUC0-last (mean) ([4]; male): 1540 ng·h/mL
